Data from patent publication US20230139835A1, “ALLULOSE IN CRYSTALLINE FORM” (SAVANNA INGREDIENTS GMBH, priority 2020, published 2023).

Assays:
[1] = Particle size distribution by dynamic image analysis (Camsizer X2 with X-Jet module); assay type: physicochemical
Experimental: Said preferred particle size distribution is determined by means of dynamic image analysis (Camsizer X2 from Retsch with X-Jet module), wherein a dispersion pressure of 5, 20, or 460 kPa was applied. The evaluation was carried out in three size models, namely:
Xc(min) Particle width which is determined from the narrowest of all measured chords xc;
XFe(max) Particle length which is determined from the longest of all measured Feret diameters xFe;
Xarea Equivalent particle diameter which corresponds to the circle equivalent diameter.

[2] = cited from earlier work

SMILES | Minimum d10 XFe(max) ([1]; dispersion pressure 5 kPa) | Minimum d10 Xarea ([1]; dispersion pressure 5 kPa) | Minimum d10 Xc(min) ([1]; dispersion pressure 5 kPa) | Minimum d50 XFe(max) ([1]; dispersion pressure 5 kPa) | Minimum d50 Xarea ([1]; dispersion pressure 5 kPa) | Minimum d50 Xc(min) ([1]; dispersion pressure 5 kPa) | Minimum d90 XFe(max) ([1]; dispersion pressure 5 kPa) | Minimum d90 Xarea ([1]; dispersion pressure 5 kPa) | Minimum d90 Xc(min) ([1]; dispersion pressure 5 kPa) | Minimum d10 XFe(max) ([1]; dispersion pressure 20 kPa) | Minimum d10 Xarea ([1]; dispersion pressure 20 kPa) | Minimum d10 Xc(min) ([1]; dispersion pressure 20 kPa) | Minimum d50 XFe(max) ([1]; dispersion pressure 20 kPa) | Minimum d50 Xarea ([1]; dispersion pressure 20 kPa) | Minimum d50 Xc(min) ([1]; dispersion pressure 20 kPa) | Minimum d90 XFe(max) ([1]; dispersion pressure 20 kPa) | Minimum d90 Xarea ([1]; dispersion pressure 20 kPa) | Minimum d90 Xc(min) ([1]; dispersion pressure 20 kPa) | Minimum d10 XFe(max) ([1]; dispersion pressure 460 kPa) | Minimum d10 Xarea ([1]; dispersion pressure 460 kPa) | also measured
O=C(CO)C(O)C(O)C(O)CO (stereo not shown) [Example 1, allulose] | 105 μm | 90 μm | 72 μm | 230 μm | 190 μm | 150 μm | 350 μm | 270 μm | 235 μm | 75 μm | 75 μm | 55 μm | 220 μm | 195 μm | 125 μm | 335 μm | 280 μm | 225 μm | 10 μm | 12 μm | Minimum d10 Xc(min) ([1]; dispersion pressure 460 kPa): 12 μm; Minimum d50 XFe(max) ([1]; dispersion pressure 460 kPa): 70 μm; Minimum d50 Xarea ([1]; dispersion pressure 460 kPa): 55 μm; Minimum d50 Xc(min) ([1]; dispersion pressure 460 kPa): 45 μm; Minimum d90 XFe(max) ([1]; dispersion pressure 460 kPa): 175 μm; Minimum d90 Xarea ([1]; dispersion pressure 460 kPa): 135 μm; Minimum d90 Xc(min) ([1]; dispersion pressure 460 kPa): 135 μm
O=C(CO)C(O)C(O)C(O)CO (stereo not shown) [Comparative Example V1, allulose] | 90 μm | 75 μm | 60 μm | 210 μm | 175 μm | 130 μm | 320 μm | 255 μm | 215 μm | 60 μm | 50 μm | 40 μm | 185 μm | 170 μm | 110 μm | 315 μm | 250 μm | 210 μm | 1 μm | 2 μm | Minimum d10 Xc(min) ([1]; dispersion pressure 460 kPa): 2 μm; Minimum d50 XFe(max) ([1]; dispersion pressure 460 kPa): 55 μm; Minimum d50 Xarea ([1]; dispersion pressure 460 kPa): 40 μm; Minimum d50 Xc(min) ([1]; dispersion pressure 460 kPa): 30 μm; Minimum d90 XFe(max) ([1]; dispersion pressure 460 kPa): 150 μm; Minimum d90 Xarea ([1]; dispersion pressure 460 kPa): 110 μm; Minimum d90 Xc(min) ([1]; dispersion pressure 460 kPa): 110 μm
C=C1C[C@@]23CC[C@H]4[C@@](C)(CCC[C@@]4(C)C(=O)O[C@@H]4O[C@H](CO)[C@@H](O)[C@H](O)[C@H]4O)[C@@H]2CC[C@]1(O[C@@H]1O[C@H](CO)[C@@H](O)[C@H](O)[C@H]1O[C@@H]1O[C@H](CO)[C@@H](O)[C@H](O)[C@H]1O)C3 [stevioside] | – | – | – | – | – | – | – | – | – | – | – | – | – | – | – | – | – | – | – | – | Daily intake considered harmless [2]: up to 4 mg per kilogram of body weight
